Measured values: PubChem BioAssay (NCI)
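Compound exposure: 48 hours, 5 concentrations, 96-well plates. TGI is the concentration that stops growth completely.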

What was measured:
Assay in all cases: DTP human tumour cell line panel, 48 h
MDA-MB-435 = test system: MDA-MB-435
MCF7 breast = test system: MCF7 breast
DU-145 prostate = test system: DU-145 prostate
MDA-MB-231 breast = test system: MDA-MB-231 breast
HOP-18 NSCLC = test system: HOP-18 NSCLC

| Compound | TGI (MDA-MB-435) | TGI (MCF7 breast) | TGI (DU-145 prostate) | TGI (MDA-MB-231 breast) | TGI (HOP-18 NSCLC) |
| --- | --- | --- | --- | --- | --- |
| COc1cc2c3c(c4cc(OC)c(OC)cc4c2cc1OC)C(=O)C1CCC(=O)N1C3 (stereo not given) | > 100 µM | > 100 µM | > 100 µM | > 100 µM | – |
| CC(=O)OC1(C#N)CC2OC1C1C2N=NN1C(=O)OC(C)(C)C (stereo not given) | – | – | – | – | > 100 µM |
